Measured values: publication PMC12527922, “Cocaine chemogenetics blunts drug-seeking by synthetic physiology” (Nature, 2025)

Assays:
[1] = target: T1, coca-GlyR (Homo sapiens, UniProt P23415+P36544, G175K/L141G/Y217F); test: [^3H]ASEM displacement, membranes of HEK293 cells expressing coca-GlyR; assay type: binding; details: for Ki: [^3H]ASEM competition, two-site fit
T1 construct: expressed in transfected cells; host or cells: HEK293 (ATCC CRL-1573), pcDNA3.1
Experimental: Cells were suspended in Tris-HCl 50 mM pH 7.4 supplemented with protease inhibitor cocktail (1:100, Sigma-Aldrich). HEK293 cells were disrupted with a 6 Polytron homogenizer (Kinematica). Homogenates were centrifuged at 48,000g (50 min, 4 °C) and washed twice in the same conditions to isolate the membrane fraction. Protein was quantified using the bicinchoninic acid method (Pierce). […] Free and membrane-bound radioligands were separated by rapid filtration of 500 μl aliquots in a 96-well plate harvester (Brandel) and washed with 2 ml of ice-cold Tris-HCl buffer. Microscint-20 scintillation liquid (65 μl per well, PerkinElmer) was added to the filter plates, plates were incubated overnight at room temperature and radioactivity counts were determined in the MicroBeta2 plate counter (PerkinElmer) with an efficiency of 41%. Two-site competition curves were fitted using Prism 10 (GraphPad). Ki values were calculated using the Cheng–Prusoff equation.

[2] = system: [^18F]fallypride binding at D2/D3 receptors (extracellular dopamine); test: [^18F]fallypride PET, rats with coca-5HT3 in the LHb and controls; assay type: in vivo, rat
Experimental: Male Sprague–Dawley rats were anaesthetized with isoflurane (1.5-2%) and then placed onto a stereotaxic frame (Kopf) and injected with AAV5-Syn::coca-5HT3-IRES-mCherry (0.5 µl, 4.95 × 10^12 vg per ml) into the LHb (AP relative to bregma, −3.8 mm; ML, ±0.7 mm; DV, −5.25 mm, at a 10° angle) (n = 5) or underwent sham surgery (n = 9). Male Th-cre rats were anaesthetized with isoflurane (1.5–2%) and then placed onto a stereotaxic frame (Kopf) and injected with AAV1-Syn::FLEX-coca-GlyR-IRES-mCherry (0.5 µl, 6 × 10^12 vg per ml) into the VTA (AP, −6.0 mm relative to bregma; ML, ±1.9 mm; DV, −8.3 mm at a 10° angle) (n = 9) or underwent sham surgery (n = 6). Approximately 3 weeks later, the rats were anaesthetized, placed inside the PET scanner (Mediso NanoScan PET/CT), injected with [^18F]fallypride (~13 MBq) and then scanned using PET. [^18F]fallypride reaches steady-state by around 45 min after its injection and then remains stable for at least 150 min[60]. […] The PET data were reconstructed and corrected for dead-time and radioactive decay and then co-registered to an magnetic resonance imaging template as previously described[46],[60],[61]. Co-registered images were analysed using one-way ANOVA and the resulting parametric images were filtered for statistically significant (P < 0.01) clusters larger than 100 contiguous voxels. All statistical parametric mapping (SPM) analyses were performed using MATLAB R2016 (MathWorks) and SPM12 (University College London)[62]. Next, additional quantitative assessments of PET images were performed using the PMOD software environment (PMOD Technologies). We generated time–activity curves using the co-registered dynamic PET images and the significant voxel clusters defined by the voxel-wise SPM analysis as the volume of interest. The standardized uptake value (SUV) was calculated using the equation SUV = C/(dose/BW) where C is the tissue concentration of [^18F]fallypride (kBq cm^−3), dose is the administered dose (MBq) and BW (kg) is the animal’s body weight. Statistical analyses were performed using Prism 10 (GraphPad).

T1 sequence (P36544+P23415 fused P36544:L141G/P36544:G175K/P36544:Y217F): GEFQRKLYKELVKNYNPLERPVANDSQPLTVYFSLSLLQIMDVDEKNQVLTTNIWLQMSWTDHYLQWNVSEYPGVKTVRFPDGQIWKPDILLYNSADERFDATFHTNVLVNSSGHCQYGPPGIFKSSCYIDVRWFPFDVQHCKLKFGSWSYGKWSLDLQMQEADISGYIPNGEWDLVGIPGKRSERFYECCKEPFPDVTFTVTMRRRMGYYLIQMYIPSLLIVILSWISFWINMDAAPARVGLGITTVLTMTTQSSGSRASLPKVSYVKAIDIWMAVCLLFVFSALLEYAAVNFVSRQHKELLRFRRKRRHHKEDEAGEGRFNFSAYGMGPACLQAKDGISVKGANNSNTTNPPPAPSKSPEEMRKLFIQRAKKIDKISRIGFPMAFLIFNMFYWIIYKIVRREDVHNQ

Structure (SMILES): COC(=O)[C@H]1[C@@H](OC(=O)c2ccccc2)C[C@@H]2CC[C@H]1N2C [cocaine]
- binding to coca-GlyR [1]: biphasic manner
- Ki ([1]; KiH): 0.014 ± 0.01 nM
- Ki ([1]; KiL): 850 ± 500 nM
- high-affinity binding sites ([1]; biphasic competition curve, [^3H]ASEM): 37.9 ± 0.5%
- Cerebellum, Mean ([2]; Coca-5HT3, Time 60 min): 111.27
- Striatum, Mean ([2]; Coca-5HT3, Time 60 min): 100.47
- Cerebellum, Mean ([2]; Coca-5HT3, Time 63 min): 107.441
- Striatum, Mean ([2]; Coca-5HT3, Time 63 min): 99.116
- Cerebellum, Mean ([2]; Coca-5HT3, Time 66 min): 105.193
- Striatum, Mean ([2]; Coca-5HT3, Time 66 min): 105.45
- Cerebellum, Mean ([2]; Coca-5HT3, Time 69 min): 101.891
- Striatum, Mean ([2]; Coca-5HT3, Time 69 min): 101.914
- Cerebellum, Mean ([2]; Coca-5HT3, Time 72 min): 100.511
- Striatum, Mean ([2]; Coca-5HT3, Time 72 min): 99.6684
- Cerebellum, Mean ([2]; Coca-5HT3, Time 75 min): 97.2849
- Striatum, Mean ([2]; Coca-5HT3, Time 75 min): 101.446
- Cerebellum, Mean ([2]; Coca-5HT3, Time 78 min): 98.3773
- Striatum, Mean ([2]; Coca-5HT3, Time 78 min): 97.1795
- Cerebellum, Mean ([2]; Coca-5HT3, Time 81 min): 97.6857
- Striatum, Mean ([2]; Coca-5HT3, Time 81 min): 99.4438
- Cerebellum, Mean ([2]; Coca-5HT3, Time 84 min): 92.2137
- Striatum, Mean ([2]; Coca-5HT3, Time 84 min): 99.5545
- Cerebellum, Mean ([2]; Coca-5HT3, Time 87 min): 94.6333
- Striatum, Mean ([2]; Coca-5HT3, Time 87 min): 100.176
- Cerebellum, Mean ([2]; Coca-5HT3, Time 90 min): 93.4987
- Striatum, Mean ([2]; Coca-5HT3, Time 90 min): 95.582
- Cerebellum, Mean ([2]; Coca-5HT3, Time 92 min): 99.4012
- Striatum, Mean ([2]; Coca-5HT3, Time 92 min): 95.8906
- Cerebellum, Mean ([2]; Coca-5HT3, Time 94 min): 96.5331
- Striatum, Mean ([2]; Coca-5HT3, Time 94 min): 92.7294
- Cerebellum, Mean ([2]; Coca-5HT3, Time 96 min): 96.1496
- Striatum, Mean ([2]; Coca-5HT3, Time 96 min): 97.7961
- Cerebellum, Mean ([2]; Coca-5HT3, Time 98 min): 96.6515
- Striatum, Mean ([2]; Coca-5HT3, Time 98 min): 98.5867
- Cerebellum, Mean ([2]; Coca-5HT3, Time 100 min): 92.3336
- Striatum, Mean ([2]; Coca-5HT3, Time 100 min): 97.1381
- Cerebellum, Mean ([2]; Coca-5HT3, Time 104 min): 94.2368
- Striatum, Mean ([2]; Coca-5HT3, Time 104 min): 97.3152
- Cerebellum, Mean ([2]; Coca-5HT3, Time 106 min): 94.1983
- Striatum, Mean ([2]; Coca-5HT3, Time 106 min): 95.2722
- Cerebellum, Mean ([2]; Coca-5HT3, Time 110 min): 94.753
- Striatum, Mean ([2]; Coca-5HT3, Time 110 min): 92.686
- Cerebellum, Mean ([2]; Coca-5HT3, Time 112 min): 89.5645
- Striatum, Mean ([2]; Coca-5HT3, Time 112 min): 94.0331
- Cerebellum, Mean ([2]; Coca-5HT3, Time 116 min): 89.6884
- Striatum, Mean ([2]; Coca-5HT3, Time 116 min): 93.7732
- Cerebellum, Mean ([2]; Coca-5HT3, Time 118 min): 92.5349
- Striatum, Mean ([2]; Coca-5HT3, Time 118 min): 94.2486
- Cerebellum, Mean ([2]; Coca-5HT3, Time 120 min): 85.32
- Striatum, Mean ([2]; Coca-5HT3, Time 120 min): 92.7482
- Cerebellum, Mean ([2]; Control, Time 60 min): 103.946
- Striatum, Mean ([2]; Control, Time 60 min): 104.425
- Cerebellum, Mean ([2]; Control, Time 63 min): 103.573
- Striatum, Mean ([2]; Control, Time 63 min): 105.053
- Cerebellum, Mean ([2]; Control, Time 66 min): 103.781
- Striatum, Mean ([2]; Control, Time 66 min): 101.615
- Cerebellum, Mean ([2]; Control, Time 69 min): 101.695
- Striatum, Mean ([2]; Control, Time 69 min): 102.645
- Cerebellum, Mean ([2]; Control, Time 72 min): 100.786
- Striatum, Mean ([2]; Control, Time 72 min): 99.1445
- Cerebellum, Mean ([2]; Control, Time 75 min): 98.0752
- Striatum, Mean ([2]; Control, Time 75 min): 97.188
- Cerebellum, Mean ([2]; Control, Time 78 min): 100.961
- Striatum, Mean ([2]; Control, Time 78 min): 99.7495
- Cerebellum, Mean ([2]; Control, Time 81 min): 99.7275
- Striatum, Mean ([2]; Control, Time 81 min): 97.1175
- Cerebellum, Mean ([2]; Control, Time 84 min): 97.0682
- Striatum, Mean ([2]; Control, Time 84 min): 97.2682
- Cerebellum, Mean ([2]; Control, Time 87 min): 95.0129
- Striatum, Mean ([2]; Control, Time 87 min): 98.2036
- Cerebellum, Mean ([2]; Control, Time 90 min): 95.374
- Striatum, Mean ([2]; Control, Time 90 min): 97.5908
- Cerebellum, Mean ([2]; Control, Time 92 min): 99.2942
- Striatum, Mean ([2]; Control, Time 92 min): 96.7723
- Cerebellum, Mean ([2]; Control, Time 94 min): 98.6955
- Striatum, Mean ([2]; Control, Time 94 min): 94.2988
- Cerebellum, Mean ([2]; Control, Time 96 min): 97.5545
- Striatum, Mean ([2]; Control, Time 96 min): 90.3041
- Cerebellum, Mean ([2]; Control, Time 98 min): 95.1481
- Striatum, Mean ([2]; Control, Time 98 min): 92.8392
- Cerebellum, Mean ([2]; Control, Time 100 min): 95.7886
- Striatum, Mean ([2]; Control, Time 100 min): 87.2087
- Cerebellum, Mean ([2]; Control, Time 104 min): 93.5542
- Striatum, Mean ([2]; Control, Time 104 min): 88.7106
- Cerebellum, Mean ([2]; Control, Time 106 min): 95.3248
- Striatum, Mean ([2]; Control, Time 106 min): 84.6758
- Cerebellum, Mean ([2]; Control, Time 110 min): 94.4655
- Striatum, Mean ([2]; Control, Time 110 min): 84.755
- Cerebellum, Mean ([2]; Control, Time 112 min): 92.6418
- Striatum, Mean ([2]; Control, Time 112 min): 85.4315
- Cerebellum, Mean ([2]; Control, Time 116 min): 92.1838
- Striatum, Mean ([2]; Control, Time 116 min): 85.918
- Cerebellum, Mean ([2]; Control, Time 118 min): 92.0673
- Striatum, Mean ([2]; Control, Time 118 min): 82.9007
- Cerebellum, Mean ([2]; Control, Time 120 min): 91.4483
- Striatum, Mean ([2]; Control, Time 120 min): 84.8826
- [^18F]fallypride binding, cocaine versus saline ([2]; control rats, cocaine 3 mg per kg i.v., nucleus accumbens and ventromedial dorsal striatum voxels): significantly decreased
